Test results: US20090155339A1, “Biocompatible Antimicrobial Filament Material” (AESCULAP AG & CO. KG, priority 2005, published 2009)

Tested on: L929 cells (DSM ACC2, mouse fibroblasts)
Test: Cytotoxicity of PHMB-HCl coated thread extracts, growth inhibition (BCA Assay method)
Format: cell-based
Conditions: positive control 7.5% v/v DMSO, 72 h
Method: The test was carried out in accordance with the standard EN ISO/IEC 17025. The thread pieces were extracted in the absence of light with the DMEM-FBS cell culture medium at 37±2° C. for 7 days. The absorbed DMEM-FBS was made up to a volume such that the surface/volume ratio was 9 cm^2/ml. As a negative control, DMEM-FBS was incubated at 37±2° C. for 7 days without test material. 7.5% v/v DMSO was used as positive control. Extracts and negative controls were diluted in five steps with DMEM-FBS solution (dilution ratio 2:3). 100 μl of the dilute solutions of the extracts and of the negative controls and also 100 μl of the positive controls were added in triplicate to wells in a […]. Thereafter, 50 μl of a freshly prepared cell suspension (7.5×10^4 cells/ml) were added to all wells except those used for background determination. The final concentrations of the extracts were accordingly 66.7%, 44.5%, 29.6%, 19.8%, 13.2% and 8.8% v/v. The plates were then incubated at 37±2° C. in humidified air (5% CO2/95% air) for 72±2 hours. Thereafter, the protein content of the samples was determined calorimetrically at a wavelength of 550 nm (BCA Assay method). The test organisms used were L929 cells (DSM ACC2, mouse fibroblasts, clone of the L strand). […] FBS and P/S from Biochrom (Berlin) and BCA protein quantification kit from Interchim (France).

`C[S+](C)[O-]` [Positive control, DMSO] gave a Growth inhibition of 81%.
